Source: patent US7507749B2, “Antitumor agents” (priority 2001, dated 2009)
Read-outs that look alike come from different tables or passages of the source.

Tested on: pancreatic ductal adenocarcinoma-03
Format: in vivo
Description: BDF1 female mice were obtained from N.C.I., CRL-Ral (D.O.B. was Feb. 26, 2001; D.O.A. was Mar. 10, 2001). The mice weighed an average of 22.5 gm. Mice were implanted SC with pancreatic ductal adenocarcinoma-03 passage 143. (D.O.T. was May 29, 2001; Td was 2.3 days).
The R-enantiomer of compound 22c was suspended in 3% ethanol, 1% POE-80, 0.25% sodium bicarbonate (by volume) to effect solution. dH2O was then added, and the pH adjusted to 7 with HCl. […] The R-enantiomer of compound 22b was suspended in 3% ethanol, 1% POE-80, 0.5% sodium-bicarbonate (by volume) to effect solution. Then, dH2O was added, and the pH adjusted to 7.5 with HCl. […] Adriamycin (source ADRIA; lot 2033BC) was suspended in dH2O to effect solution, and the pH was 6.0.
Treatment began six days following implant, at which time the tumors were palpable size (126 mg median). The duration of treatment was prolonged (18 days) in order to obtain a clear separation in efficacy between the compounds.

[1] = Cg 2, IV 80 mg/kg/inj days 6,9,12,15,18,21,24, total 560 mg/kg
[2] = Cg 3, IV 50 mg/kg/inj days 6,9,12,15,18,21,24, total 350 mg/kg
[3] = Cg 4, IV 31 mg/kg/inj days 6,9,12,15,18,21,24, total 217 mg/kg
[4] = Cg 5, total 592.8 mg/kg, text: SC 31.2 mg/kg/inj qd 6-24 (table prints days 6,9..24 IV)
[5] = Cg 12 in table (Cage 6 in text), total 370.5 mg/kg, text: SC 19.5 mg/kg/inj qd 6-24 (table prints IV)

SMILES: C[C@@H](Oc1ccc(Oc2ccc3ccc(Cl)cc3n2)cc1)C(=O)O [Compound R-22b, (R) 2-[4-(7-chloroquinolin-2-yloxy)phenoxy]propanoic acid]
- Behavior post injection (Cage 2, IV 80 mg/kg/inj, lasted only a few minutes): agitated post IV injection
- Neuromuscular toxicity (Cage 2, IV 80 mg/kg/inj, total 560 mg/kg): no neuromuscular toxicity
- Behavior post injection (Cage 5, SC 31.2 mg/kg/inj qd 6-24): not agitated post SC injection
- Behavior post injection (Cage 6 in text, SC 19.5 mg/kg/inj qd 6-24): not agitated post SC injection
- % Body Wt change between day 6 and day 24 [1]: +3.7%
- % T/C mass [1]: 14.1%
- Activity Rating [1]: +++ (2.0-2.8)
- CR's [1]: 0/7
- Drug Deaths [1]: 0/7
- Growth Delay [1]: 17.5 days
- Log Kill [1]: 2.3
- Median Tumor Mass on Day 24 (Range) [1]: 320 mg
- Median time for tumors to 1,000 mg (range) [1]: 34 days
- PR's [1]: 2/7
- Tumor Free day-157 [1]: 0/7
- % Body Wt change between day 6 and day 24 [2]: +8.8%
- % T/C mass [2]: 29.1%
- Activity Rating [2]: ++ (1.3-1.9)
- CR's [2]: 1/6
- Drug Deaths [2]: 0/6
- Growth Delay [2]: 11.5 days
- Log Kill [2]: 1.5
- Median Tumor Mass on Day 24 (Range) [2]: 658 mg
- Median time for tumors to 1,000 mg (range) [2]: 28 days
- PR's [2]: 1/6
- Tumor Free day-157 [2]: 0/6
- % Body Wt change between day 6 and day 24 [3]: +10.4%
- % T/C mass [3]: 76.2%
- Activity Rating [3]: − (<0.7)
- CR's [3]: 0/6
- Drug Deaths [3]: 0/6
- Growth Delay [3]: 3.5 days
- Log Kill [3]: 0.5
- Median Tumor Mass on Day 24 (Range) [3]: 1722 mg
- Median time for tumors to 1,000 mg (range) [3]: 20 days
- PR's [3]: 0/6
- Tumor Free day-157 [3]: 0/6
- % Body Wt change between day 6 and day 24 [4]: +3.5%
- % T/C mass [4]: 48.9%
- Activity Rating [4]: + (0.7-1.2)
- CR's [4]: 1/5
- Drug Deaths [4]: 0/5
- Growth Delay [4]: 6.5 days
- Log Kill [4]: 0.9
- Median Tumor Mass on Day 24 (Range) [4]: 1105 mg
- Median time for tumors to 1,000 mg (range) [4]: 23 days
- PR's [4]: 1/5
- Tumor Free day-157 [4]: 1/5
- % Body Wt change between day 6 and day 24 [5]: +10.3%
- % T/C mass [5]: 82.7%
- Activity Rating [5]: − (<0.7)
- CR's [5]: 0/5
- Drug Deaths [5]: 0/5
- Growth Delay [5]: 3.0 days
- Log Kill [5]: 0.4
- Median Tumor Mass on Day 24 (Range) [5]: 1868 mg
- Median time for tumors to 1,000 mg (range) [5]: 19.5 days
- PR's [5]: 0/5
- Tumor Free day-157 [5]: 0/5
